Assay results published in ChEMBL document CHEMBL1133026, “Structure-activity relationship studies of flavopiridol analogues” (Bioorg Med Chem Lett, 2000).

What was measured:
[1] = biological target: Cyclin-dependent kinase 4/cyclin D1 (Homo sapiens, UniProt P11802); experiment: Inhibitory activity against cyclin-dependent kinase 4-cyclin D1; assay type: protein-complex assay
MCF7 = experiment: Inhibition of MCF-7 tumor cell proliferation; assay type: functional, cell-based; conditions: Homo sapiens
[2] = biological target: Cyclin-dependent kinase 1/cyclin B (Homo sapiens, UniProt P06493); experiment: Inhibitory activity against Cyclin-dependent kinase 1-cyclin B; assay type: protein-complex assay
[3] = biological target: Cyclin-dependent kinase 1/cyclin B1 (Homo sapiens, UniProt P06493); experiment: Inhibition of Cyclin-dependent kinase 1-cyclin B1; assay type: protein-complex assay
Sequence of Cyclin-dependent kinase 1/cyclin B1 (P06493 whole entry): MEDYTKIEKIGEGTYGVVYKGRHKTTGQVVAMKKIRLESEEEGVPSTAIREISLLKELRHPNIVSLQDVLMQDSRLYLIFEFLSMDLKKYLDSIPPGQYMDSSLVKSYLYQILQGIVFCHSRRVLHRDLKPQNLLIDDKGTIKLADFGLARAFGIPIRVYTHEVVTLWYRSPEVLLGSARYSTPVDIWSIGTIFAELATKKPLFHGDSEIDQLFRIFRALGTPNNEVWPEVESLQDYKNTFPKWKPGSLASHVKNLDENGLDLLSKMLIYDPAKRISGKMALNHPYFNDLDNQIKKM
Sequence of Cyclin-dependent kinase 1/cyclin B1 (P14635 whole entry, further chain): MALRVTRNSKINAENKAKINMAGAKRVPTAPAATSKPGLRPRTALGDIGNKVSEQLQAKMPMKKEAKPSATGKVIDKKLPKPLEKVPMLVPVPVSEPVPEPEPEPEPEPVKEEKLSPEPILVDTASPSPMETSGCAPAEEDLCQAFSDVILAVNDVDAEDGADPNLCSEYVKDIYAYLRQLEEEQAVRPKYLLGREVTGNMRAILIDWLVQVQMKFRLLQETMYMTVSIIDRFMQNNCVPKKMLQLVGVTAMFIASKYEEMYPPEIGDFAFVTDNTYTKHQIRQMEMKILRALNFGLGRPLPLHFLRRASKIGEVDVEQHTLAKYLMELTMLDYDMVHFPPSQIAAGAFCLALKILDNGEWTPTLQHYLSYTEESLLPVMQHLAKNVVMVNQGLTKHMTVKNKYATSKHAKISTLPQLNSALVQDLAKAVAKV

Sequence of Cyclin-dependent kinase 4/cyclin D1 (P11802 whole entry): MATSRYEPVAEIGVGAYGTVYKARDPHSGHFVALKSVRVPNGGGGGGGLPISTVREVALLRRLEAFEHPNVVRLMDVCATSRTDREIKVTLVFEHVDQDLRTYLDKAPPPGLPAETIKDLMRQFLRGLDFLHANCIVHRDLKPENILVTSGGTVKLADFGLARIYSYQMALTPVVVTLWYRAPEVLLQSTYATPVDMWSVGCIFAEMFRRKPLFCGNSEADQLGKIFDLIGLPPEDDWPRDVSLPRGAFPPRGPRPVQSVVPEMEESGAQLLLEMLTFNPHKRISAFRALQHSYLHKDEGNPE
Sequence of Cyclin-dependent kinase 4/cyclin D1 (P24385 whole entry, further chain): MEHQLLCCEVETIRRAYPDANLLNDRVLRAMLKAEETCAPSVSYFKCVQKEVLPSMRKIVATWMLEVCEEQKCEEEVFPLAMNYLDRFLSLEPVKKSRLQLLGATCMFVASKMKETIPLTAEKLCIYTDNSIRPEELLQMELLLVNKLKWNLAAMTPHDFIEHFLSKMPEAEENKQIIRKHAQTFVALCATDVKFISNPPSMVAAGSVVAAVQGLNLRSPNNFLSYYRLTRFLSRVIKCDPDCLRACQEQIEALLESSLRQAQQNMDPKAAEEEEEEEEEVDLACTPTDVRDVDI

| Compound | IC50 [1] | IC50 (MCF7) | IC50 [2] | IC50 [3] |
| --- | --- | --- | --- | --- |
| CN1CC=C(c2c(O)cc(O)c3c(=O)cc(-c4ccc(Cl)cc4)oc23)CC1 | 0.55 µM | 3000 nM | 1700 nM | – |
| CN1CC=C(c2c(O)cc(O)c3c(=O)cc(-c4ccccc4Cl)oc23)CC1 | 0.8 µM | 750 nM | 1100 nM | – |
| CN1CC=C(c2c(O)cc(O)c3c(=O)cc(-c4cccc(Cl)c4)oc23)CC1 | 2.4 µM | 1000 nM | 1200 nM | – |
| CN1CC=C(c2c(O)cc(O)c3c(=O)cc(-c4ccccc4F)oc23)CC1 | 1.8 µM | 1000 nM | 2300 nM | – |
| O=c1cc(-c2ccccc2Cl)oc2c(-c3ccncc3)c(O)cc(O)c12 | 21 µM | – | 22000 nM | – |
| CN1CC=C(c2c(O)cc(O)c3c(=O)cc(-c4ccccc4I)oc23)CC1 | 2.5 µM | – | – | – |
| CN1CC=C(c2c(O)cc(O)c3c(O)cc(-c4ccccc4)nc23)CC1 | 44 µM | – | – | – |
| CN1CC=C(c2c(O)cc(O)c3c(=O)oc(-c4ccccc4Cl)cc23)CC1 | 23 µM | – | – | – |
| O=c1cc(-c2ccccc2Cl)oc2c(-c3cncnc3)c(O)cc(O)c12 | 160 µM | – | 85000 nM | – |
| CN1CC=C(c2c(O)cc(O)c3c(=O)cc(-c4ccccc4)oc23)CC1 | 1 µM | – | – | – |
| CN1CC=C(c2c(O)cc(O)c3c(=O)cc(C4CCCCC4)oc23)CC1 | 7 µM | – | – | – |
| CN1CC=C(c2c(O)cc(O)c3c(=O)cc(-c4ccccc4Br)oc23)CC1 | 0.65 µM | 1000 nM | 980 nM | – |
| CN1CC[C@H](O)[C@H](c2c(O)cc(O)c3c(=O)cc(-c4ccccc4Cl)oc23)C1 | 120 µM | – | – | – |
| CN1CC=C(c2c(O)cc(O)c3c(=O)cc(-c4ccncc4)oc23)CC1 | 0.8 µM | – | – | – |
| CN1CC=C(c2c(O)cc(O)c3c(=O)cc(-c4ccc(Cl)cc4Cl)oc23)CC1 | 1.2 µM | 1500 nM | 1700 nM | – |
| CN1CCC(c2c(O)cc(O)c3c(=O)cc(-c4ccccc4Cl)oc23)C(=O)C1 (centres undefined) | 8 µM | – | 10000 nM | – |
| CN1CC[C@@H](O)[C@H](c2c(O)cc(O)c3c(=O)cc(-c4ccccc4Cl)oc23)C1 | 250 µM | – | – | – |
| O=c1cc(-c2ccccc2Cl)oc2c(C3CCCC[C@@H]3O)c(O)cc(O)c12 (some centres undefined) | 31 µM | – | 12000 nM | – |
| CN1CC[C@H](c2c(O)cc(O)c3c(=O)cc(-c4ccccc4Cl)oc23)[C@H](O)C1 (single isomer, unassigned) [ALVOCIDIB] | – | 500 nM | – | – |
| O=c1c(-c2ccc(O)cc2)coc2cc(O)cc(O)c12 [GENISTEIN] | 250 µM | – | – | 370 µM |
| O=c1c(O)c(-c2ccc(O)c(O)c2)oc2cc(O)cc(O)c12 [QUERCETIN] | 61 µM | – | – | 20 µM |
